Reference: patent US5371090A, “Naphthyridonecarboxylic acid derivatives” (Bayer Aktiengesellschaft, priority 1991, dated 1994)
≈ marks a conversion by molar mass, not a printed value. Like-named read-outs stand apart in the source and are kept apart here.

What was measured:
Test in all cases: MIC on Iso-Sensitest agar, serial dilution
Type in all cases: cell-based
Pseudomonas aeruginosa = system: Pseudomonas aeruginosa
Experimental: (§1) The minimum inhibitory concentrations (MICs) were determined on Iso-Sensitest agar (Oxoid) using serial dilution methods. For each test substance a series of agar plates was prepared which contained concentrations of the active substance which decreased as the dilution factor was doubled. The agar plates were inoculated by means of a multipoint inoculator (Denley). The inocula used were overnight cultures of the pathogens which had previously been diluted to such an extent that each inoculation point contained approx. 10^4 colony-forming units. The inoculated agar plates were incubated at 37° C., and the growth of the germs was read off after approx. 20 hours. The MIC value (μg/ml) indicates the lowest concentration of active compound at which no growth could be observed with the naked eye.

Staphylococcus aureus = conditions: 37° C., approx. 20 hours
Experimental: as §1

Morganella morg. = system: Morganella morg.
Experimental: as §1, with “hours.” for “hours. The MIC value (μg/ml) indicates the lowest concentration of active compound at which no growth could be observed with the naked eye.”

Klebsiella sp. = system: Klebsiella sp.
Experimental: as §1, with “hours.” for “hours. The MIC value (μg/ml) indicates the lowest concentration of active compound at which no growth could be observed with the naked eye.”

E. coli = conditions: Escherichia coli, 20 h, 37° C., approx. 20 hours
Experimental: as §1, with “hours.” for “hours. The MIC value (μg/ml) indicates the lowest concentration of active compound at which no growth could be observed with the naked eye.”

Enterococcus faecalis = system: Enterococcus faecalis
Experimental: as §1, with “hours.” for “hours. The MIC value (μg/ml) indicates the lowest concentration of active compound at which no growth could be observed with the naked eye.”

Providencia spp. = system: Providencia spp.
Experimental: as §1, with “hours.” for “hours. The MIC value (μg/ml) indicates the lowest concentration of active compound at which no growth could be observed with the naked eye.”

[1] = Staphylococcus aureus strain 133
[2] = Staphylococcus aureus strain 1756, read-out: MIC
[3] = Morganella morg. strain 932, 37° C., approx. 20 hours, read-out: MIC
[4] = Klebsiella sp. strain 8085, 37° C., approx. 20 hours, read-out: MIC
[5] = Enterococcus faecalis, 20 h, Enterococcus faecalis strain 9790, 37° C., approx. 20 hours, read-out: MIC
[6] = Enterococcus faecalis, 20 h, Enterococcus faecalis strain 27101, 37° C., approx. 20 hours, read-out: MIC
[7] = Providencia spp. strain 12012, 37° C., approx. 20 hours, read-out: MIC
[8] = Pseudomonas aeruginosa strain Walter, 37° C., approx. 20 hours, read-out: MIC
[9] = Enterococcus faecalis, 20 h, Enterococcus faecalis strain 9790, 37° C., approx. 20 hours
[10] = Enterococcus faecalis, 20 h, Enterococcus faecalis strain 27101, 37° C., approx. 20 hours
[11] = Staphylococcus aureus, 20 h, Staphylococcus aureus strain 133

Compound: CN1CCC2=C(C1)CN(c1c(F)cc3c(=O)c(C(=O)O)cn(C4CC4)c3c1Cl)C2 [Example 8, 8-chloro-1-cyclopropyl-6-fluoro-1,4-dihydro-7-(5-methyl-2,3,4,5,6,7-hexahydro-1H-pyrrolo[3,4-c]pyridin-2-yl)-4-oxo-3-quinolinecarboxylic acid]
- MIC (Pseudomonas aeruginosa; Pseudomonas aeruginosa, 20 h): 0.5 µg/mL (≈ 1.2 µM)
- MIC (Staphylococcus aureus; [1]): 0.03 µg/mL (≈ 0.0718 µM)
- MIC (Staphylococcus aureus; [2]): 0.03 µg/mL (≈ 0.0718 µM)
- MIC (Morganella morg.; [3]): 0.06 µg/mL (≈ 0.144 µM)
- MIC (Klebsiella sp.; [4]): 0.06 µg/mL (≈ 0.144 µM)
- MIC (E. coli; E. coli strain 455/7): 1 µg/mL (≈ 2.39 µM)
- MIC (E. coli; E. coli strain Neumann): 0.03 µg/mL (≈ 0.0718 µM)
- MIC (Enterococcus faecalis; [5]): 0.06 µg/mL (≈ 0.144 µM)
- MIC (Enterococcus faecalis; [6]): 0.06 µg/mL (≈ 0.144 µM)
- MIC (Providencia spp.; [7]): 0.13 µg/mL (≈ 0.311 µM)

Compound: Cc1c(F)c(N2CC3=C(CN(C)CC3)C2)cc2c1c(=O)c(C(=O)O)cn2-c1ccc(F)cc1F [Example 9, 1-(2,4-difluorophenyl)-6-fluoro-1,4-dihydro-5-methyl-7-(5-methyl-2,3,4,5,6,7-hexahydro-1H-pyrrolo[3,4-c]-pyridin-2-yl)-4-oxo-3-quinolinecarboxylic acid]
- MIC (Pseudomonas aeruginosa; [8]): 128 µg/mL (≈ 273 µM)
- MIC (Staphylococcus aureus; [1]): 0.06 µg/mL (≈ 0.128 µM)
- MIC (Staphylococcus aureus; [2]): 0.06 µg/mL (≈ 0.128 µM)
- MIC (Morganella morg.; Morganella, 20 h): 0.5 µg/mL (≈ 1.07 µM)
- MIC (Klebsiella sp.; Klebsiella, 20 h): 0.5 µg/mL (≈ 1.07 µM)
- MIC (E. coli; E. coli strain 455/7): 128 µg/mL (≈ 273 µM)
- MIC (E. coli; E. coli strain Neumann): 0.25 µg/mL (≈ 0.533 µM)
- MIC (Enterococcus faecalis; Enterococcus faecalis, 20 h): 0.5 µg/mL (≈ 1.07 µM)
- MIC (Enterococcus faecalis; [9]): 0.5 µg/mL (≈ 1.07 µM)
- MIC (Providencia spp.; Providencia, 20 h): 0.5 µg/mL (≈ 1.07 µM)

Compound: Nc1cccc2c1CN(c1c(F)cc3c(=O)c(C(=O)O)cn(C4CC4)c3c1F)C2 [Ref., 7-(4-amino-1,3-dihydro-isoindol-2-yl)-1-cyclopropyl-6,8-difluoro-1,4-dihydro-4-oxo-3-quinolinecarboxylic acid, reference compound]
- MIC (Pseudomonas aeruginosa; [8]): 128 µg/mL (≈ 322 µM)
- MIC (Staphylococcus aureus; [1]): 0.03 µg/mL (≈ 0.0755 µM)
- MIC (Staphylococcus aureus; [2]): 0.03 µg/mL (≈ 0.0755 µM)
- MIC (Morganella morg.; Morganella, 20 h): 1 µg/mL (≈ 2.52 µM)
- MIC (Klebsiella sp.; [4]): 4 µg/mL (≈ 10.1 µM)
- MIC (E. coli; E. coli strain 455/7): 128 µg/mL (≈ 322 µM)
- MIC (E. coli; E. coli strain Neumann): 0.5 µg/mL (≈ 1.26 µM)
- MIC (Enterococcus faecalis; [9]): 1 µg/mL (≈ 2.52 µM)
- MIC (Enterococcus faecalis; [10]): 0.5 µg/mL (≈ 1.26 µM)
- MIC (Providencia spp.; Providencia, 20 h): 1 µg/mL (≈ 2.52 µM)

Compound: O=C(O)c1cn(C2CC2)c2cc(N3Cc4ccncc4C3)c(F)cc2c1=O [Example 4, 1-cyclopropyl-7-(2,3-dihydro-1H-pyrrolo[3,4-c]pyridin-2-yl)-6-fluoro-1,4-dihydro-4-oxo-3-quinolinecarboxylic acid]
- MIC (Pseudomonas aeruginosa; [8]): 4 µg/mL (≈ 10.9 µM)
- MIC (Staphylococcus aureus; [1]): 0.06 µg/mL (≈ 0.164 µM)
- MIC (Staphylococcus aureus; [2]): 0.06 µg/mL (≈ 0.164 µM)
- MIC (Morganella morg.; [3]): 0.5 µg/mL (≈ 1.37 µM)
- MIC (Klebsiella sp.; [4]): 0.25 µg/mL (≈ 0.684 µM)
- MIC (E. coli; E. coli strain 455/7): 128 µg/mL (≈ 350 µM)
- MIC (E. coli; E. coli strain Neumann): 0.06 µg/mL (≈ 0.164 µM)
- MIC (Enterococcus faecalis; [5]): 0.25 µg/mL (≈ 0.684 µM)
- MIC (Enterococcus faecalis; [6]): 0.25 µg/mL (≈ 0.684 µM)
- MIC (Providencia spp.; [7]): 0.5 µg/mL (≈ 1.37 µM)

Compound: O=C(O)c1cn(C2CC2)c2nc(N3Cc4cccnc4C3)c(F)cc2c1=O [Example 3]
- MIC (Pseudomonas aeruginosa; Pseudomonas aeruginosa, 20 h): 2 µg/mL (≈ 5.46 µM)
- MIC (Staphylococcus aureus; [11]): 0.25 µg/mL (≈ 0.682 µM)
- MIC (Staphylococcus aureus; Staphylococcus aureus, 20 h, Staphylococcus aureus strain 1756): 0.25 µg/mL (≈ 0.682 µM)
- MIC (Morganella morg.; Morganella, 20 h): 0.25 µg/mL (≈ 0.682 µM)
- MIC (Klebsiella sp.; Klebsiella, 20 h): 0.5 µg/mL (≈ 1.36 µM)
- MIC (E. coli; E. coli strain 455/7): 128 µg/mL (≈ 349 µM)
- MIC (Enterococcus faecalis; Enterococcus faecalis, 20 h): 0.5 µg/mL (≈ 1.36 µM)
- MIC (Enterococcus faecalis; [9]): 0.5 µg/mL (≈ 1.36 µM)
- MIC (Providencia spp.; Providencia, 20 h): 0.5 µg/mL (≈ 1.36 µM)

Compound: O=C(O)c1cn(C2CC2)c2c(F)c(N3Cc4ccncc4C3)c(F)cc2c1=O [Example 2, 1-cyclopropyl-7-(2,3-dihydro-1H-pyrrolo[3,4-c]pyridin-2-yl)-6,8-difluoro-1,4-dihydro-4-oxo-3-quinolinecarboxylic acid]
- MIC (Pseudomonas aeruginosa; Pseudomonas aeruginosa, 20 h): 1 µg/mL (≈ 2.61 µM)
- MIC (Staphylococcus aureus; [2]): 0.06 µg/mL (≈ 0.157 µM)
- MIC (Staphylococcus aureus; [11]): 0.25 µg/mL (≈ 0.652 µM)
- MIC (E. coli; E. coli strain 455/7): 8 µg/mL (≈ 20.9 µM)
- MIC (E. coli; E. coli strain Neumann): 0.06 µg/mL (≈ 0.157 µM)
- MIC (Enterococcus faecalis; [10]): 0.25 µg/mL (≈ 0.652 µM)
- MIC (Providencia spp.; Providencia, 20 h): 0.25 µg/mL (≈ 0.652 µM)

Compound: O=C(O)c1cn(C2CC2)c2nc(N3Cc4ccncc4C3)c(F)cc2c1=O [Example 6, 1-cyclopropyl-7-(2,3-dihydro-1H-pyrrolo[3,4-c]pyridin-2-yl]-6-fluoro-1,4-dihydro-4-oxo-1,8-naphthyridine-3-carboxylic acid]
- MIC (Pseudomonas aeruginosa; [8]): 16 µg/mL (≈ 43.7 µM)
- MIC (Staphylococcus aureus; [1]): 0.25 µg/mL (≈ 0.682 µM)
- MIC (Staphylococcus aureus; [2]): 0.25 µg/mL (≈ 0.682 µM)
- MIC (Morganella morg.; [3]): 0.25 µg/mL (≈ 0.682 µM)
- MIC (Klebsiella sp.; Klebsiella, 20 h): 0.5 µg/mL (≈ 1.36 µM)
- MIC (E. coli; E. coli strain 455/7): 128 µg/mL (≈ 349 µM)
- MIC (E. coli; E. coli strain Neumann): 0.13 µg/mL (≈ 0.355 µM)
- MIC (Enterococcus faecalis; Enterococcus faecalis, 20 h): 0.5 µg/mL (≈ 1.36 µM)
- MIC (Enterococcus faecalis; [9]): 0.5 µg/mL (≈ 1.36 µM)
- MIC (Providencia spp.; [7]): 1 µg/mL (≈ 2.73 µM)

Compound: Cl.O=C(O)c1cn(C2CC2)c2c(F)c(N3Cc4cccnc4C3)c(F)cc2c1=O [Example 1B, 1-cyclopropyl-7-(5,7-dihydro-6H-pyrrolo[3,4-b]pyridin-6-yl)-6,8-difluoro-1,4-dihydro-4-oxo-3-quinolinecarboxylic acid hydrochloride]
- MIC (Pseudomonas aeruginosa; [8]): 4 µg/mL
- MIC (Staphylococcus aureus; [1]): 0.02 µg/mL
- MIC (Staphylococcus aureus; [2]): 0.02 µg/mL
- MIC (Klebsiella sp.; Klebsiella, 20 h): 0.25 µg/mL
- MIC (E. coli; E. coli strain 455/7): 8 µg/mL
- MIC (Enterococcus faecalis; Enterococcus faecalis strain 27101, 37° C., approx. 20 hours, read-out: MIC): 0.01 µg/mL
- MIC (Enterococcus faecalis; [5]): 0.06 µg/mL
- MIC (Providencia spp.; Providencia, 20 h): 0.25 µg/mL

Compound: CN1CCC2=C(C1)CN(c1c(F)cc3c(=O)c(C(=O)O)cn(C4CC4)c3c1F)C2.Cl [Example 7B, 1-cyclopropyl-6,8-difluoro-1,4-dihydro-7-(5-methyl-2,3,4,5,6,7-hexahydro-1H-pyrrolo[3,4-c]-pyridin-2-yl)-4-oxo-3-quinolinecarboxylic acid hydrochloride]
- MIC (Pseudomonas aeruginosa; Pseudomonas aeruginosa, 20 h): 1 µg/mL
- MIC (Staphylococcus aureus; [1]): 0.06 µg/mL
- MIC (Staphylococcus aureus; [2]): 0.06 µg/mL
- MIC (Morganella morg.; [3]): 0.03 µg/mL
- MIC (Klebsiella sp.; [4]): 0.06 µg/mL
- MIC (E. coli; E. coli strain 455/7): 2 µg/mL
- MIC (E. coli; E. coli strain Neumann): 0.02 µg/mL

Compound: O=C(O)c1cn(C2CC2)c2cc(N3Cc4cccnc4C3)c(F)cc2c1=O [Example 5, 1-cyclopropyl-7-(5,7-dihydro-6H-pyrrolo[3,4-b]-pyridin-6-yl)-6-fluoro-1,4-dihydro-4-oxo-3-quinolinecarboxylic acid]
- MIC (Pseudomonas aeruginosa; [8]): 128 µg/mL (≈ 350 µM)
- MIC (Staphylococcus aureus; [1]): 0.13 µg/mL (≈ 0.356 µM)
- MIC (Staphylococcus aureus; [2]): 0.13 µg/mL (≈ 0.356 µM)
- MIC (Morganella morg.; [3]): 0.13 µg/mL (≈ 0.356 µM)
- MIC (Klebsiella sp.; Klebsiella, 20 h): 1 µg/mL (≈ 2.74 µM)
- MIC (E. coli; E. coli strain 455/7): 128 µg/mL (≈ 350 µM)
- MIC (E. coli; E. coli strain Neumann): 0.13 µg/mL (≈ 0.356 µM)
- MIC (Enterococcus faecalis; [5]): 0.25 µg/mL (≈ 0.684 µM)
- MIC (Enterococcus faecalis; [6]): 0.25 µg/mL (≈ 0.684 µM)
- MIC (Providencia spp.; [7]): 0.5 µg/mL (≈ 1.37 µM)
